The first assay concerns IL-1β production in PMA-differentiated THP-1 cells. Nature of the assay: IL-1β production in PMA-differentiated THP-1 cells stimulated with gramicidin (hTHP-1 assay containing 2% fetal bovine serum; Procedures 1-3). It counts as cell-based, human. The following applies: Homo sapiens, THP-1, hTHP-1 assay containing 2% fetal bovine serum; class symbols; read-out: hTHP-1 IC50 (Average IC50 of compounds in hTHP-1 assay). Summed up:
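THP-1 cells differentiated with PMA (20 ng/ml, 16-18 h), replated in 2% FBS RPMI (50,000 cells/well), preincubated 1 h with compound (top final 100 μM, 3-fold steps, 0.37% DMSO), then stimulated 2 h with gramicidin (5 μM). Supernatant IL-1β measured by HTRF.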
Turning to `CC(C)c1ccc(F)c(C(C)C)c1CC(=O)N=S(N)(=O)c1ccc2c(cnn2C)c1` (stereo not shown) [Example 90, N-(amino(1-methyl-1H-indazol-5-yl)(oxo)-λ^6-sulfaneylidene)-2-(3-fluoro-2,6-diisopropylphenyl)acetamide], the IC50 (commonly the point on the concentration scale where inhibition reaches its midpoint) fell in the range of 5000 to 30000 nM.
On the same count and under the same terms, to `CC(C)c1ccc(F)c(C(C)C)c1CC(=O)N=S(N)(=O)c1ccc(CN(C)C)cn1` (stereo not shown) [Example 91, N-(amino(5-((dimethylamino)methyl)pyridin-2-yl)(oxo)-λ^6-sulfaneylidene)-2-(3-fluoro-2,6-diisopropylphenyl)acetamide] belongs 5000 to 30000 nM; to `CC(C)c1cc(C2(F)COC2)cc(C(C)C)c1CC(=O)N=S(N)(=O)c1ncc(C(C)(C)O)s1` (stereo not shown) [Example 94, N-(amino(5-(2-hydroxypropan-2-yl)thiazol-2-yl)(oxo)-λ^6-sulfaneylidene)-2-(4-(3-fluorooxetan-3-yl)-2,6-diisopropylphenyl)acetamide], 1000 to 5000 nM; to `CCCc1cc(F)cc(CCC)c1CC(=O)N=S(N)(=O)c1cnc(C(C)(C)O)s1` (stereo not shown) [Example 95, N-(amino(2-(2-hydroxypropan-2-yl)thiazol-5-yl)(oxo)-λ^6-sulfaneylidene)-2-(4-fluoro-2,6-dipropylphenyl)acetamide], 200 to 1000 nM.
Still for that read-out and setting: to `CC(C)c1cc(-c2ccc3c(c2)COCC3)cc(C(C)C)c1CC(=O)N=S(N)(=O)c1cnc(C(C)(C)O)s1` (stereo not shown) [Example 97, N-(amino(2-(2-hydroxypropan-2-yl)thiazol-5-yl)(oxo)-λ^6-sulfaneylidene)-2-(4-(isochroman-7-yl)-2,6-diisopropylphenyl)acetamide] belongs 200 to 1000 nM.
As for `CC(C)(O)c1ncc(S(N)(=O)=NC(=O)Cc2c(C3CC3)cc(F)cc2C(F)(F)F)s1` (stereo not shown) [Example 98], the IC50 lay within 5000 to 30000 nM.
On to `CC(C)c1nc(-c2cccc(C(F)(F)F)c2)c(F)c(C(C)C)c1CC(=O)N=S(=O)(NC(=O)OC(C)(C)C)c1cnc(C(C)(C)O)s1` (stereo not shown) [Example 99, tert-butyl (N-(2-(5-fluoro-2,4-diisopropyl-6-(3-(trifluoromethyl)phenyl)pyridin-3-yl)acetyl)-2-(2-hydroxypropan-2-yl)thiazole-5-sulfonimidoyl)carbamate], for which the IC50 lay in the range of 1000 to 5000 nM.
As for `CC(C)c1nc(-c2cccc(C(F)(F)F)c2)c(F)c(C(C)C)c1CC(=O)N=S(N)(=O)c1cnc(C(C)(C)O)s1` (stereo not shown) [Example 100], the IC50 was 200 to 1000 nM.
Same read-out and setting: to `CC(C)c1ncc(F)c(C(C)C)c1CC(=O)N=S(N)(=O)c1ccc(CN(C)C)cc1` (stereo not shown) [Example 101, N-(amino(4-((dimethylamino)methyl)phenyl)(oxo)-λ^6-sulfaneylidene)-2-(5-fluoro-2,4-diisopropylpyridin-3-yl)acetamide] belongs 5000 to 30000 nM.
`CC(C)c1cc(F)cc(C2CCOC2)c1CC(=O)N=S(N)(=O)c1cnc(C(C)(C)O)s1` (stereo not shown) [Example 102, N-(amino(2-(2-hydroxypropan-2-yl)thiazol-5-yl)(oxo)-λ^6-sulfaneylidene)-2-(4-fluoro-2-isopropyl-6-(tetrahydrofuran-3-yl)phenyl)acetamide]: the IC50 was 5000 to 30000 nM.
With `CC(C)c1ccc(F)c(C(C)C)c1CC(=O)N=S(N)(=O)c1cnc(C(C)(C)O)s1` (stereo not shown) [Example 103, N-(amino(2-(2-hydroxypropan-2-yl)thiazol-5-yl)(oxo)-λ^6-sulfaneylidene)-2-(3-fluoro-2,6-diisopropylphenyl)acetamide], the IC50 fell in the range of 200 to 1000 nM.
As to `CC(C)c1c(F)c(Cl)cc(C2CC2)c1CC(=O)N=S(N)(=O)c1cnc(C(C)(C)O)s1` (stereo not shown) [Example 104, N-(amino(2-(2-hydroxypropan-2-yl)thiazol-5-yl)(oxo)-λ^6-sulfaneylidene)-2-(4-chloro-6-cyclopropyl-3-fluoro-2-isopropylphenyl)acetamide], the IC50 is 200 to 1000 nM.
As to `COCc1cc(C(C)C)c(CC(=O)N=S(N)(=O)c2cc(C(C)(C)O)cs2)c(C(C)C)c1` (stereo not shown) [Example 105, N-(amino(4-(2-hydroxypropan-2-yl)thiophen-2-yl)(oxo)-λ^6-sulfaneylidene)-2-(2,6-diisopropyl-4-(methoxymethyl)phenyl) acetamide], the IC50 lay in the range of 40 to 200 nM.
The same measure, in the same setting: to `CC(C)c1ccc(F)c(C(C)C)c1CC(=O)N=S(N)(=O)c1cc(C(C)(C)O)cs1` (stereo not shown) [Example 106, N-(amino(4-(2-hydroxypropan-2-yl)thiophen-2-yl)(oxo)-λ^6-sulfaneylidene)-2-(3-fluoro-2,6-diisopropylphenyl)acetamide] belongs 40 to 200 nM; to `CC(C)c1cc(-n2cccn2)cc(C(C)C)c1CC(=O)N=S(N)(=O)c1cnc(C(C)(C)O)s1` (stereo not shown) [Example 107, N-(amino(2-(2-hydroxypropan-2-yl)thiazol-5-yl)(oxo)-λ^6-sulfaneylidene)-2-(2,6-diisopropyl-4-(1H-pyrazol-1-yl)phenyl)acetamide], 5000 to 30000 nM.
On the same count and under the same terms, to `COCc1cc(C(C)C)c(CC(=O)N=S(N)(=O)c2cnc(C(C)(C)O)s2)c(C(C)C)c1` (stereo not shown) [Example 108, N-(amino(2-(2-hydroxypropan-2-yl)thiazol-5-yl)(oxo)-λ^6-sulfaneylidene)-2-(2,6-diisopropyl-4-(methoxymethyl)phenyl) acetamide] belongs 40 to 200 nM; to `COCc1cc(C(C)C)c(CC(=O)N=S(N)(=O)c2cnc(C(C)(C)O)s2)c(C(C)C)c1F` (stereo not shown) [Example 109, N-(amino(2-(2-hydroxypropan-2-yl)thiazol-5-yl)(oxo)-λ^6-sulfaneylidene)-2-(3-fluoro-2,6-diisopropyl-4-(methoxymethyl)phenyl) acetamide], 40 to 200 nM.
Same read-out and setting: to `CC(C)c1cc(-c2ccc3ccccc3c2)cc(C(C)C)c1CC(=O)N=S(N)(=O)c1ncc(C(C)(C)O)s1` (stereo not shown) [Example 110, N-(amino(5-(2-hydroxypropan-2-yl)thiazol-2-yl)(oxo)-λ^6-sulfaneylidene)-2-(2,6-diisopropyl-4-(naphthalen-2-yl)phenyl)acetamide] belongs 200 to 1000 nM; to `COCc1cc(C(C)C)c(CC(=O)N=S(N)(=O)c2ncc(C(C)(C)O)s2)c(C(C)C)c1` (stereo not shown) [Example 111, N-(amino(5-(2-hydroxypropan-2-yl)thiazol-2-yl)(oxo)-λ^6-sulfaneylidene)-2-(2,6-diisopropyl-4-(methoxymethyl)phenyl) acetamide], 40 to 200 nM.

Staying with this assay, now noted: Homo sapiens, THP-1, hTHP-1 assay containing 2% fetal bovine serum; given as numeric bound; read-out: hTHP-1 IC50 (Average IC50 of compounds in hTHP-1 assay).
Consider `CC(C)c1cncc(C(C)C)c1CC(=O)NS(=O)(=O)c1sc(C(C)(C)O)nc1CO` [Example 92, 2-(3,5-diisopropylpyridin-4-yl)-N-((4-(hydroxymethyl)-2-(2-hydroxypropan-2-yl)thiazol-5-yl)sulfonyl)acetamide], for which the IC50 is more than 30000 nM.
The same measure, in the same setting: to `CC(C)c1cc(C2(O)COC2)cc(C(C)C)c1CC(=O)N=S(N)(=O)c1ncc(C(C)(C)O)s1` (stereo not shown) [Example 93, N-(amino(5-(2-hydroxypropan-2-yl)thiazol-2-yl)(oxo)-λ^6-sulfaneylidene)-2-(4-(3-hydroxyoxetan-3-yl)-2,6-diisopropylphenyl)acetamide] belongs more than 30000 nM; to `CC(C)c1cc(F)cc(C(C)C)c1C(C)C(=O)N=S(N)(=O)c1cnc(C(C)(C)O)s1` (stereo not shown) [Example 96, N-(amino(2-(2-hydroxypropan-2-yl)thiazol-5-yl)(oxo)-λ^6-sulfaneylidene)-2-(4-fluoro-2,6-diisopropylphenyl)propanamide], more than 30000 nM.

The values are drawn from patent publication US11370763B2, “Compounds and compositions for treating conditions associated with NLRP activity” (Novartis AG, priority 2017, dated 2022).
